Reference: patent US20090074757A1, “Antitumor Combination Comprising Substituted Acryloyl Distamycin Derivatives and Antibodies Inhibiting Growth Factors or Their Receptors” (priority 2005, published 2009)

Test system: DU145 human prostate carcinoma cells
Test: In vivo antitumor efficacy, DU145 human prostate carcinoma xenograft in athymic mice
Set-up: species or system Balb Nu/Nu athymic mice
Details: for Toxicity: evaluated on the basis of body weight reduction, animals per group of 8, bevacizumab 20 mg/kg i.p., brostallicin 0.2 mg/kg i.v.; for Time to reach 1 g / T-C (days), delay for treated vs control tumors to reach 1 g: s.c. DU145 tumors in athymic mice, bevacizumab 20 mg/kg i.p. days 6,10,13,17,20,24; for Time to reach 1 g: treatment from day 6, brostallicin 0.2 mg/kg i.v. days 6,13,20 (q7d x 3); for T-C (days), delay for treated vs control tumors to reach 1 g: brostallicin 0.2 mg/kg i.v. days 6,13,20
Procedure: Balb Nu/Nu, male mice, (athymic mice) from Harlan, Italy, were maintained in cages with paper filter covers, food and bedding sterilized and water acidified. 2.5×10^6 DU145 human prostate carcinoma cells (from American Type Culture Collection) were injected subcutaneously in athymic mice. […] The treatments started 6 days later when the tumors were palpable. All drugs were prepared immediately before use. Brostallicin treatments were administered intravenously in a volume of 10 ml/kg at a dose of 0.2 mg/kg and treatments were repeated weekly for 3 weeks. Bevacizumab was administered intraperitoneally in a volume of 10 ml/kg at a dose of 20 mg/kg on the days 6, 10, 13, 17, 20 and 24 from the day of cell injection. When both compounds were administered on the same day, bevacizumab was administered intraperitoneally immediately before brostallicin intravenous injection. Every 3 days the tumor growth and the net body weight were evaluated. Tumor growth was assessed by caliper. The two diameters were recorded, and the tumor weight was calculated according to the following formula: length (mm)×width^2 (mm)/2. The effect of the antitumor treatment was determined as the delay in the onset of an exponential growth of tumors [see for reference, Anti Cancer Drugs 7: 437-60, 1996]. This delay (T-C value) was defined as the difference of the time (in days) required for the treatment group (T) and the control group (C) tumors to reach a predetermined size (e.g. 1 g). Toxicity was evaluated on the basis of the body weight reduction.

Molecule | Toxicity | Time to reach 1 g [days] | T-C (days), delay for treated vs control tumors to reach 1 g [days]
C=C(Br)C(=O)Nc1cc(C(=O)Nc2cc(C(=O)Nc3cc(C(=O)Nc4cc(C(=O)NCCNC(=N)N)n(C)c4)n(C)c3)n(C)c2)n(C)c1.Cl [Brostallicin, N-(5-{[(5-{[(5-{[(2-{[amino(imino)methyl]amino}ethyl)amino]carbonyl}-1-methyl-1H-pyrrol-3-yl)amino]carbonyl}-1-methyl-1H-pyrrol-3-yl)amino]carbonyl}-1-methyl-1H-pyrrol-3-yl)-4-[(2-bromoacryloyl)amino]-1-methyl-1H-pyrrole-2-carboxamide hydrochloride] | 0/8 | 18.4 ± 5.6 | 4.6
Bevacizumab: monoclonal antibody directed against the vascular endothelial growth factor (VEGF), a potent neo-vascularisation inhibitor | 0/8 | 23.4 ± 4.6 | 9.6
